Measured values reported in PMC6826779, “Bis-allylic Deuterated DHA Alleviates Oxidative Stress in Retinal Epithelial Cells” (Antioxidants, 2019).

Tests used:
15-sLOX [1] = biological target: T1, 15-sLOX (Glycine max, UniProt P08170); assay: Kinetics parameters of 15s-LOX (UV 270 nm, Michaelis-Menten); format: biochemical, Glycine max (soybean); conditions: monitored at 270 nm
T1 sequence (P08170 1-839): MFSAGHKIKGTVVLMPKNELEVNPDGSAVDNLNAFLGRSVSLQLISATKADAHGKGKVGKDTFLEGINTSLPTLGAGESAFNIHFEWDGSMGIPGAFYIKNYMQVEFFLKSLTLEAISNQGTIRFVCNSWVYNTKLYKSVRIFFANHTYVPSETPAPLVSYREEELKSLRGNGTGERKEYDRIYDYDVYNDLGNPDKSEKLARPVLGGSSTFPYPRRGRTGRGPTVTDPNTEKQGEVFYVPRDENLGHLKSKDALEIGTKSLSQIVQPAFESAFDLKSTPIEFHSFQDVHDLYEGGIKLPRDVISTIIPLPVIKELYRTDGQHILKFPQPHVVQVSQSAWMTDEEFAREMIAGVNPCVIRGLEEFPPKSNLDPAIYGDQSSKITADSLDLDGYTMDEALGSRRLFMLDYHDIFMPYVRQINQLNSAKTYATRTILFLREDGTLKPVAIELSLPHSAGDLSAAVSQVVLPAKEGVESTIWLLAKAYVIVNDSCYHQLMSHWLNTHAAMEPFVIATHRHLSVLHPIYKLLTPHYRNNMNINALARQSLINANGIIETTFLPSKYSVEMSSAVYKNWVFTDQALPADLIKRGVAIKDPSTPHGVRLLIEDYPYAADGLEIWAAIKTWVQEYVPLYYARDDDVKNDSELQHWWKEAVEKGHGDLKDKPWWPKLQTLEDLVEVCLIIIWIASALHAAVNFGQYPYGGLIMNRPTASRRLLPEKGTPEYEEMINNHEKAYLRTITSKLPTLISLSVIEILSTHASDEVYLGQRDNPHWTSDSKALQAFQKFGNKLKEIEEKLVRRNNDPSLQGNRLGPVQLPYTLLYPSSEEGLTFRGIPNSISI
Description: The activity of 15-sLOX was monitored on a Beckman Coulter DU730 Life Sciences UV-visible spectrometer at a wavelength of 270 nm monitoring the conjugated triene structure in the dihydroxylation products. For the measurements a reaction mixture of DHA or deuterated DHA (0.02 mM; 0.04 mM; 0.1 mM and 0.2 mM) was prepared in 750 µL sodium borate buffer (50 mM, pH 9) by ultrasonification for 10 s. The reaction was subsequently initiated by the addition of 10 µL 15-sLOX (4 mg/mL) to make a total volume of 760 µL in a Hellma CEL2056 quartz cuvette with 1 cm path length (20 °C). The initial reaction rates (V(0)), derived from the recorded UV-absorbance using the law of Lambert-Beer (molar extinction coefficient = 40,000), were plotted against the respective DHA concentrations and fitted to Michaelis-Menten kinetics in GraphPad Prism 7.0. All V(0) values were determined in triplicate and the average of three independent experiments was plotted against the substrate concentrations to yield Michaelis-Menten kinetics.

15-sLOX [2] = biological target: T1, 15-sLOX; assay: LC-MS/MS of 15s-LOX oxidized samples (product profile); format: biochemical, Glycine max (soybean); conditions: 0.1 mM substrate, 30 min reaction, room temperature
Description: In order to gain insights on the nature of the produced metabolites, LC-MS/MS analysis of the reaction products were carried out. To this end, the respective DHA variants (0.1 mM) were incubated in a 2 mL eppendorf tube with 10 µL 15-sLOX (4 mg/mL) in sodium borate buffer (50 mM, pH 9) for 30 min at room temperature and the reaction quenched by the addition of cold MeOH (760 µL). The hydroperoxides were reduced with the addition of aq. SnCl2 (50 µL, 5 mg/mL) and subsequently the mixture was centrifuged (16,100 ×g for 5 min). Water (2 mL) was added to the supernatant, followed by the dropwise addition of glacial acetic acid (40 µL). The products were purified by SPE using SepPak 200 mg C18 cartridges (3CC), according to published protocols. The methyl formate eluates were evaporated to dryness, dissolved in MeOH (0.5 mL) and stored at −80 °C until analysis. The resulting solution was diluted 1000 times with MeOH for LC-MS/MS measurements. To 120 µL water, 72 µL of MeOH, 4 µL of the diluted solution and 4 µL of an internal standard (15-HETE-d8, Leukotriene LTB4-d4 and DHA-d5) was added. The samples were loaded in a SIL-30AC autosampler and the analytes separated on a Kinetex 1.7 µm C18 100Å, 50 × 2.1 mm LC column as described. The detection of DHA metabolites was performed in selected ion monitoring mode using several traces in order to take the eventual loss of a deuterium atom into account. The following traces were used: m/z 327.2, 343.2, 359.2 and 375.2 for DHA and its metabolites, m/z 327.2, 328.2, 329.2, 344.2, 345.2, 360.2, 361.2, 376.2, 377.2 for D2-DHA, m/z 331.2, 345.3, 346.2, 361.2, 362.3, 363.2, 377.2, 378.2 and 379.2 for D4-DHA and m/z 337.2, 352.2, 353.2, 367.2, 368.2, 369.2, 383.2, 384.2 and 385.2 for D10-DHA. Tandem mass spectra were recorded as product ion scans. Quantification of the metabolites was done by calculating the area ratio between the analyte and the internal standard (DHA-d5 for non-hydroxylated, 15-HETE-d8 for mono-hydroxylated and LTB4-d4 for di-hydroxylated derivatives) using Multiquant version 3.0.2.

Compound | 15s-LOX activity for the double hydroxylation product (15-sLOX [1]) | pre-dominant product of 15-sLOX oxidation (LC-MS) (15-sLOX [2])
[2H]C([2H])(/C=C\C/C=C\C/C=C\C/C=C\C/C=C\CC)/C=C\CCC(=O)O [D2-DHA, (6,6-D2)-DHA] | no substantial differences | double oxygenation product 10S,17S-diHDHA
[2H]C([2H])(C=CCC=CCC=CCC=CCC)C=CC([2H])([2H])C=CCCC(=O)O [D4-DHA, (6,6,9,9-D4)-DHA] | no substantial differences | double oxygenation product 10S,17S-diHDHA
CC/C=C\C/C=C\C/C=C\C/C=C\C/C=C\C/C=C\CCC(=O)O [Natural DHA, docosahexaenoic acid, reference compound] | no substantial differences | double oxygenation product 10S,17S-diHDHA
